Source: patent publication US20150202167A1, “Trans-Clomiphene Formulations and Uses Thereof” (REPROS THERAPEUTICS INC., priority 2012, published 2015)

Experiments:
[1] = noted by Ernst et al.; cited from earlier work
[2] = cited from earlier work
[3] = Particle size analysis by laser diffraction (Malvern Mastersizer 2000); type: physicochemical; settings: for d10: 10% of the total volume of particles is less than the indicated size; for d10 / d50 / d90: final method conditions, 0.1% (w/v) Span 85 in hexane; for d50: 50% of the total volume of particles is less than the indicated size; for d90: 90% of the total volume of particles is less than the indicated size
Excerpt: Trans-clomiphene is characterized for size using an instrument adapted to measure equivalent spherical volume diameter, such as a Malvern Mastersizer 2000 laser diffraction particle size analyzer or equivalent instrument. After being characterized for size, the trans-clomiphene is then milled, if necessary, preferably using a pin mill under suitable conditions of mill rotation rate and feed rate, to bring the particle size value within the above mentioned limits according to the invention. The efficiency of milling is checked by sampling using a Malvern Mastersizer 2000 laser diffraction particle size analyzer and the final particle size is checked in a similar manner.
The values found from characterizing a large number of “unknown” particles can be plotted frequency vs. diameter. This gives a characteristic curve representing size distribution of the sample, i.e., cumulative percentage under size distribution curve. Values from this can be read off directly or plotted on log-probability paper to give an appropriate straight line. The mean equivalent spherical volume diameter is the 50% undersize value. The mean equivalent spherical volume diameter found is thus a statistical representation of a theoretical particle having the same property as the “unknown” particle. The following is a description by way of example.
Repeated particle size measurements of the sample dispersed in 0.1% (w/v) Span™ 85 in hexane were collected while recirculating over the course of approximately five minutes with a pump speed of 1000 rpm. Particle size (d10, d50, d90) was plotted versus the recirculation time. Values for both the d10 and d50 fell within a narrow range for the duration. The decrease in the d90 primarily occurred over the first 90 seconds with a gradual decrease thereafter.
Repeated particle size measurements of the sample were collected while recirculating for 90 seconds with increasing pump speeds to examine the effect of pump speed on particle size. […] A pump speed of 1500 rpm was selected to optimize both dispersion of agglomerates and suspension of the larger particles and to minimize attrition of the blades and needles.
One particle size measurement of each sample of trans-clomiphene citrate was collected using the final method conditions. Three of the lots shared a similar bimodal particle size distribution whereas one lot contained a third mode consisting of much larger particles. The remaining lot of was bimodal but reflected much larger particle sizes than the distributions of the earlier three lots with bimodal distributions.
Particle size data was acquired using a Malvern Instruments MS2000 equipped with a Hydro 2000 μP dispersion unit. Data was collected and analyzed using Mastersizer 2000 v. 5.60 software using volume based measurements. NIST-traceable glass beads were used as the reference standard.
Particle size of trans-clomiphene citrate using the final method conditions is reproduced below: […]

[4] = Evaluation of dispersants for trans-clomiphene citrate; type: physicochemical; settings: 0.01% (w/v) Tween 20 (polysorbate 20) in water
Procedure: 0.1% (w/v) Lecithin in Isopar G™, 0.1% (w/v) Span™ 85 (sorbitane trioleate) in hexane, and 0.01% (w/v) Tween® 20 (polysorbate 20) in water were evaluated as dispersants for trans-clomiphene citrate. Samples suspended easily in each of the two organic dispersants and settled out of suspension slowly. […] Samples dispersed in the Isopar G™-based and hexane-based dispersants were examined microscopically. […] 0.1% (w/v) Span™ 85 in hexane was selected for further analysis.

CCN(CC)CCOc1ccc(/C(=C(/Cl)c2ccccc2)c2ccccc2)cc1 (single isomer, unassigned) [trans-isomer, trans-2-(p-(2-chloro-1,2-diphenylvinyl)phenoxy)triethylamine]
estrogenic / antiestrogenic character [1]: antiestrogenic

CCN(CC)CCOc1ccc(C(=C(Cl)c2ccccc2)c2ccccc2)cc1 [clomiphene]
FSH, LH ([2]; both young and old men after treatment with clomiphene): increases
free and total testosterone ([2]; men, young men showing significant increases): increases

CCN(CC)CCOc1ccc(/C(=C(/Cl)c2ccccc2)c2ccccc2)cc1.O=C(O)CC(O)(CC(=O)O)C(=O)O [compound 16204]
d10 [3]: 8.058 μm
d50 [3]: 106.743 μm
d90 [3]: 318.464 μm

CCN(CC)CCOc1ccc(/C(=C(/Cl)c2ccccc2)c2ccccc2)cc1.O=C(O)CC(O)(CC(=O)O)C(=O)O [compound 24712]
d10 [3]: 4.038 μm
d50 [3]: 13.902 μm
d90 [3]: 218.573 μm

CCN(CC)CCOc1ccc(/C(=C(/Cl)c2ccccc2)c2ccccc2)cc1.O=C(O)CC(O)(CC(=O)O)C(=O)O [compound 24867]
d10 [3]: 4.794 μm
d50 [3]: 13.418 μm
d90 [3]: 70.289 μm

CCN(CC)CCOc1ccc(/C(=C(/Cl)c2ccccc2)c2ccccc2)cc1.O=C(O)CC(O)(CC(=O)O)C(=O)O [compound 31249]
d10 [3]: 4.850 μm
d50 [3]: 13.455 μm
d90 [3]: 76.891 μm

CCN(CC)CCOc1ccc(/C(=C(/Cl)c2ccccc2)c2ccccc2)cc1.O=C(O)CC(O)(CC(=O)O)C(=O)O [compound 32305]
d10 [3]: 3.373 μm
d50 [3]: 9.664 μm
d90 [3]: 44.995 μm
Vol under % ([3]; size 0.010 μm): 0.00%
Vol under % ([3]; size 0.011 μm): 0.00%
Vol under % ([3]; size 0.013 μm): 0.00%
Vol under % ([3]; size 0.015 μm): 0.00%
Vol under % ([3]; size 0.017 μm): 0.00%
Vol under % ([3]; size 0.020 μm): 0.00%
Vol under % ([3]; size 0.023 μm): 0.00%
Vol under % ([3]; size 0.026 μm): 0.00%
Vol under % ([3]; size 0.030 μm): 0.00%
Vol under % ([3]; size 0.035 μm): 0.00%
Vol under % ([3]; size 0.040 μm): 0.00%
Vol under % ([3]; size 0.046 μm): 0.00%
Vol under % ([3]; size 0.052 μm): 0.00%
Vol under % ([3]; size 0.060 μm): 0.00%
Vol under % ([3]; size 0.069 μm): 0.00%
Vol under % ([3]; size 0.079 μm): 0.00%
Vol under % ([3]; size 0.091 μm): 0.00%
Vol under % ([3]; size 0.105 μm): 0.00%
Vol under % ([3]; size 0.120 μm): 0.00%
Vol under % ([3]; size 0.138 μm): 0.00%
Vol under % ([3]; size 0.158 μm): 0.00%
Vol under % ([3]; size 0.182 μm): 0.00%
Vol under % ([3]; size 0.209 μm): 0.00%
Vol under % ([3]; size 0.240 μm): 0.00%
Vol under % ([3]; size 0.275 μm): 0.00%
Vol under % ([3]; size 0.316 μm): 0.00%
Vol under % ([3]; size 0.363 μm): 0.00%
Vol under % ([3]; size 0.417 μm): 0.00%
Vol under % ([3]; size 0.479 μm): 0.00%
Vol under % ([3]; size 0.550 μm): 0.00%
Vol under % ([3]; size 0.631 μm): 0.00%
Vol under % ([3]; size 0.724 μm): 0.00%
Vol under % ([3]; size 0.832 μm): 0.00%
Vol under % ([3]; size 0.965 μm): 0.02%
Vol under % ([3]; size 1.096 μm): 0.10%
Vol under % ([3]; size 1.259 μm): 0.28%
Vol under % ([3]; size 1.445 μm): 0.60%
Vol under % ([3]; size 1.660 μm): 1.12%
Vol under % ([3]; size 1.905 μm): 1.93%
Vol under % ([3]; size 2.188 μm): 3.10%
Vol under % ([3]; size 2.512 μm): 4.72%
Vol under % ([3]; size 2.884 μm): 6.86%
Vol under % ([3]; size 3.311 μm): 9.59%
Vol under % ([3]; size 3.802 μm): 12.94%
Vol under % ([3]; size 4.385 μm): 16.94%
Vol under % ([3]; size 5.012 μm): 21.58%
Vol under % ([3]; size 5.754 μm): 26.82%
Vol under % ([3]; size 6.607 μm): 32.58%
Vol under % ([3]; size 7.586 μm): 38.74%
Vol under % ([3]; size 8.710 μm): 45.14%
Vol under % ([3]; size 10.00 μm): 51.59%
Vol under % ([3]; size 11.482 μm): 57.87%
Vol under % ([3]; size 13.183 μm): 63.80%
Vol under % ([3]; size 15.136 μm): 69.20%
Vol under % ([3]; size 17.378 μm): 73.95%
Vol under % ([3]; size 19.953 μm): 77.98%
Vol under % ([3]; size 22.909 μm): 81.29%
Vol under % ([3]; size 26.303 μm): 83.92%
Vol under % ([3]; size 30.200 μm): 85.99%
Vol under % ([3]; size 34.674 μm): 87.62%
Vol under % ([3]; size 39.811 μm): 88.95%
Vol under % ([3]; size 45.709 μm): 90.13%
Vol under % ([3]; size 52.481 μm): 91.28%
Vol under % ([3]; size 60.256 μm): 92.50%
Vol under % ([3]; size 69.183 μm): 93.84%
Vol under % ([3]; size 79.433 μm): 95.28%
Vol under % ([3]; size 91.201 μm): 96.72%
Vol under % ([3]; size 104.713 μm): 98.02%
Vol under % ([3]; size 120.226 μm): 99.04%
Vol under % ([3]; size 138.038 μm): 99.72%
Vol under % ([3]; size 158.489 μm): 99.97%
Vol under % ([3]; size 181.970 μm): 100.00%
Vol under % ([3]; size 208.930 μm): 100.00%
Vol under % ([3]; size 239.883 μm): 100.00%
Vol under % ([3]; size 275.423 μm): 100.00%
Vol under % ([3]; size 316.228 μm): 100.00%
Vol under % ([3]; size 363.078 μm): 100.00%
Vol under % ([3]; size 416.869 μm): 100.00%
Vol under % ([3]; size 478.630 μm): 100.00%
Vol under % ([3]; size 549.541 μm): 100.00%
Vol under % ([3]; size 630.957 μm): 100.00%
Vol under % ([3]; size 724.438 μm): 100.00%
Vol under % ([3]; size 831.764 μm): 100.00%
Vol under % ([3]; size 954.993 μm): 100.00%
Vol under % ([3]; size 1096.478 μm): 100.00%

trans-clomiphene citrate
Dissolution of the sample suspended in aqueous dispersant [4]: Partial dissolution
